According to patent publication US6767569B1, “Surface decontamination of cooked sausage and processed meat and poultry products” (priority 1999, dated 2004):
“And” between values parts separate entries of the source, which are not always exact repeats. Equal entries are not always repeated. Marks after values point to notes of the source that are not given here.

Tests used:
microorganism = experiment: Contacting the surfaces of the food product with peracetic acid solution; assay type: cell-based; settings: 1,000 ppm peracetic acid solution for 12 seconds at 8 °C
From the text: The decontaminant solution preferably contains from about 500 to about 4,000 ppm of peracetic acid. The optimal concentration depends an the length of time to which the food products are exposed to the decontaminant solution and on the temperature of the decontaminant solution. […] For ensuring complete elimination of resistant microorganisms, such as Listeria, longer times and/or higher peracetic acid concentrations are preferred. Preferred peracetic acid concentrations are from about 1000 to about 2,000 ppm for contact times of 30 seconds to 1 minute to ensure complete kill of Listeria and other undesirable microorganisms at temperatures of from about 8-20° C. Microbiological analysis procedures are carried out periodically on samples of the treated frankfurters to ensure that the conditions used are maintaining a 100% kill of Listeria or other selected microorganisms.

Listeria monocytogenes = experiment: Dip treatment of Listeria monocytogenes-inoculated frankfurters, quantitative plating on MOX agar; assay type: cell-based
Procedure: A five-strain mixture of Listeria monocytogenes was used for purposes of inoculation. To prepare this mixture, five strains of L. monocytogenes were grown individually in tryptic soy broth (TSB), for 48±2 h at 30° C. Equivalent aliquots of broth from each strain were then combined in a sterile test tube to achieve a mixed inoculum containing approximately equal populations of each of the five strains. The mixed culture was diluted as appropriate using 0.1% peptone diluent to achieve a final mixed inoculum with a cell density of approximately 10,000 colony forming units (cfu)/ml.
Packages of commercially prepared beef frankfurter sausages (“franks”) were obtained from a local retail outlet. The packages were stored at 4° C. until use (no more than 24 hours). Immediately prior to testing, the franks were removed from the commercial packaging and placed on a sterile surface in a biological safety cabinet. The franks were oriented on the surface such that no franks were in contact with each other. Using a micropipette, each individual frank (except for those used as controls) was inoculated with 0.1 ml of the previously prepared mixed inoculum with a target inoculation level of 1,000 cfu/frank. A sterile bent rod was used to spread the inoculum over the frank surface as evenly as possible. Inoculated franks were allowed to remain undisturbed on the sterile surface for at least 5 minutes prior to treatment with the decontaminant solution. Three franks were inoculated per treatment to be evaluated, one frank being tested without inoculation.
The peracetic acid used in the evaluation was obtained as a 35% concentrate under the trade name STERIS 20™ Sterilant Concentrate from STERIS Corporation (Mentor, Ohio). The concentrate was used without the buffers or other additives supplied by the manufacturer. The concentrate was diluted to appropriate nominal concentrations (100, 500, and 1000 ppm). Approximately 1 L of each concentration to be evaluated was prepared in sanitized 2 L, plastic containers. Additionally, 1 L of a control treatment, namely sterile distilled water (0 ppm peracetic acid), was also prepared in a 2 L container. Each of these four concentrations was evaluated using two exposure times, 2 and 10 seconds. Therefore, a total of eight treatments (four peracetic acid concentrations (0, 100, 500, and 1000 ppm) at two exposure times (2 and 10 seconds) were evaluated in this study. Each test was carried out two or more times for establishing reproducibility.
All peracetic acid treatments were performed inside a biological safety cabinet. Inoculated franks were dipped into the peracetic acid treatment solution (or distilled water for the 0 ppm samples) and allowed to remain submerged for either 2 or 10 seconds. Sterile utensils were employed to remove the franks from the treatment solution and transfer them to a sterile distilled water rinse. Franks were then submerged in a sterile water rinse and remained submerged for 2 or 10 seconds (i.e., the same time as they were exposed to the peracetic acid solution) and were removed with sterile utensils. Immediately after removal from the sterile water rinse, the franks were placed on a sterile surface and allowed to air dry for 5 minutes.
Following air drying, one frank per treatment was placed in a sterile Stomacher bag and analyzed quantitatively for residual L. monocytogenes populations. The remaining two franks were retained in sterile Stomacher bags and used for qualitative analysis, if necessary (in the event no surviving cells were detected using quantitative procedures).
To determine the number of surviving L. monocytogenes cells (quantitative evaluation), one frank per treatment was analyzed. The weight of the frank was determined and an appropriate volume of 0.1% peptone diluent added to achieve a 1:5 dilution. These samples were homogenized for 2 minutes using a Stomacher Lab Blender. […]

[1] = Stability of peracetic acid solutions; assay type: physicochemical
Procedure: Peracetic acid solutions were prepared in deionized water as for Example 2 to nominal concentrations of 1000 and 2000 mg/L. Actual peracetic acid concentrations were measured at 0 and 30 minutes at around 25° C. and 50° C.

[2] = system: Listeria monocytogenes ATCC. 43256; experiment: D-values for Listeria monocytogenes in peracetic acid solutions (suspension test); assay type: cell-based
Procedure: Peracetic acid solutions of 500, 1000, and 2000 mg/L (ppm) were prepared as for Example 1, using deionized water. To 100 mL samples of the solutions, 1.7×10^6 Listeria monocytogenes ATCC. 43256 per mL were added and mixed. The samples were maintained at a preselected temperature ([…], ˜15° C., or ˜22° C.). At 10, 20, 30, 40, and 50 seconds contact time, 1 mL was removed, neutralized, and the Listeria monocytogenes organisms remaining were determined by plating on TSA and incubation. […] D-values (time required to kill one log of the test microorganism—in this case, a reduction in microorganisms from 1.7×10^6 initially to 1.7×10^5) were determined, as shown in TABLE 4. D-values below the detection limit of the test are shown as <2 seconds.

[3] = nominal 1000 mg/L, 26-29 °C, pH 2.7
[4] = nominal 1000 mg/L, 50 °C, pH 2.7
[5] = nominal 2000 mg/L, 26-29 °C, pH 2.6
[6] = nominal 2000 mg/L, 50 °C, pH 2.6

CC(=O)OO [peracetic acid]
reduction in the number of microorganism (microorganism): six log reduction | After treatment (CFU/frank) (Listeria monocytogenes; PAA 100 ppm (actual 114 ppm), 2 sec exposure followed by 2 sec deionized water rinse): 180 CFU/frank and <90* CFU/frank and 90 CFU/frank | After treatment (CFU/frank) (Listeria monocytogenes; PAA 100 ppm (actual 114 ppm), 2 sec exposure followed by 2 sec deionized water rinse, listed as PAA): at least 90 CFU/frank | After treatment (CFU/frank) (Listeria monocytogenes; PAA 100 ppm (actual 114 ppm), 10 sec exposure followed by 10 sec deionized water rinse, target inoculation 1,000 CFU/frank): <90* CFU/frank and 180 CFU/frank | After treatment (CFU/frank) (Listeria monocytogenes; PAA 100 ppm (actual 114 ppm), 10 sec exposure followed by 10 sec deionized water rinse, target inoculation 1,000 CFU/frank, listed as PAA): at least 90 CFU/frank | After treatment (CFU/frank) (Listeria monocytogenes; PAA 500 ppm (actual 572 ppm), 2 sec exposure followed by 2 sec deionized water rinse): <90* CFU/frank and 90 CFU/frank | After treatment (CFU/frank) (Listeria monocytogenes; PAA 500 ppm (actual 572 ppm), 2 sec exposure followed by 2 sec deionized water rinse, listed as PAA): < 90 CFU/frank | After treatment (CFU/frank) (Listeria monocytogenes; PAA 500 ppm (actual 572 ppm), 10 sec exposure followed by 10 sec deionized water rinse): <90* CFU/frank | After treatment (CFU/frank) (Listeria monocytogenes; PAA 500 ppm (actual 572 ppm), 10 sec exposure followed by 10 sec deionized water rinse, listed as PAA): less than the detection limit of the quantitative plating procedure | After treatment (CFU/frank) (Listeria monocytogenes; PAA 1000 ppm (actual 1146 ppm), 2 sec exposure followed by 2 sec deionized water rinse): <90* CFU/frank | After treatment (CFU/frank) (Listeria monocytogenes; PAA 1000 ppm (actual 1146 ppm), 2 sec exposure followed by 2 sec deionized water rinse, listed as PAA): < 90 CFU/frank | After treatment (CFU/frank) (Listeria monocytogenes; PAA 1000 ppm (actual 1146 ppm), 10 sec exposure followed by 10 sec deionized water rinse): <90* CFU/frank | After treatment (CFU/frank) (Listeria monocytogenes; PAA 1000 ppm (actual 1146 ppm), 10 sec exposure followed by 10 sec deionized water rinse, listed as PAA): < 90 CFU/frank | stability of the solutions over the 30 minute period ([1]; 1000 and 2000 mg/L nominal, around 25 °C and 50 °C): relatively stable | Concentration at 0 mins [1, 3]: 1347 µg/mL | Concentration at 30 mins [1, 3]: 1355 µg/mL | Concentration at 0 mins [1, 4]: 1310 µg/mL | Concentration at 30 mins [1, 4]: 1284 µg/mL | Concentration at 0 mins [1, 5]: 2016 µg/mL | Concentration at 30 mins [1, 5]: 2017 µg/mL | Concentration at 0 mins [1, 6]: 1937 µg/mL | Concentration at 30 mins [1, 6]: 1959 µg/mL | D-value ([2]; 500 mg/L, 8.3-8.5 °C, pH 3.7-3.7): 2 s | D-value ([2]; 500 mg/L, 14.7-15.0 °C, pH 3.4-3.6): <2 s | D-value ([2]; 500 mg/L, 22.7-22.8 °C, pH 3.4-3.6): <2 s | D-value ([2]; 1000 mg/L, 8.1-8.1 °C, pH 3.2-3.4): <2 s | D-value ([2]; 1000 mg/L, 15.0-15.2 °C, pH 3.2-3.4): <2 s | D-value ([2]; 2000 mg/L, 8.1-8.4 °C, pH 3.0-3.1): <2 s | D-value ([2]; 2000 mg/L, temperature range printed 3.0-3.1 °C, pH 3.0-3.1): <2 s | Listeria monocytogenes organisms remaining ([2]; 500, 1000, 2000 mg/L, 10-50 seconds contact, except the sample at 500 mg/L, ~8 °C, 10 seconds): destroyed in all cases
